How the values were obtained:
[1] = test system: COLO-320 xenografts; test: Ex vivo biodistribution in NSG mice bearing COLO-320 xenografts; details: for Biodistribution, Bladder / Biodistribution, Blood / Biodistribution, Bone / Biodistribution, Brain / Biodistribution, Fat / Biodistribution, Heart / Biodistribution, Kidneys / Biodistribution, Liver / Biodistribution, Lungs / Biodistribution, Muscle / Biodistribution, Pancreas / Biodistribution, Small Intestines / Biodistribution, Spleen / Biodistribution, Stomach / Biodistribution, Tumor: COLO-320 xenograft NSG mice, 1.5MBq i.v.
Procedure: (§1) All animal studies were carried out according to regulations set forth and approved by the Johns Hopkins Animal Care and Use Committee. Female, 6- to 8-weeks-old immunodeficient NOD scid gamma (NSG) mice were subcutaneously inoculated with 1 million PC12, STC-1 or COLO-320 cells in […] of Hank’s balanced salt solution in the top flank. Tumors of 4–6 mm in diameter (typically 14-21 days post inoculation) were utilized for in vivo imaging or ex vivo biodistribution studies.
(§2) Mice (n=5 per group) were intravenously injected with 1.5MBq (40μCi) of each tracer in 150μL of saline. Ex vivo biodistribution studies were performed at 30min and 120min time points after tracer administration. Blood, liver, spleen, heart, lungs, kidneys, small intestines, stomach, muscle, fat, bone, bladder, brain and tumor tissues were retrieved, weighed, and counted in an automated gamma counter (1282 Compugamma CS). Percentage injected dose per gram (%ID/g) values were calculated based on normalization to external standards, counted in triplicate, and accounted for signal-decay correction.

[2] = test system: PC12 cells; test: In vitro uptake (binding) assay in PC12 cells; type: cell-based; details: 30mins incubation, 1 million cells
Procedure: (§3) Both [^18F]FDOPA enantiomers were initially assessed in vitro in all NET cells.
(§4) In vitro binding assays were carried out, in triplicate, in PBS with 0.5% FBS, for 30mins at ambient temperatures using 1 million cells and repeated three times. Blocking studies were carried out using 10meq of the commercial LAT1 inhibitor, 2-Aminobicyclo[2.2.1]heptane-2-carboxylic acid (TOCRIS, MN, USA). Following incubation with each tracer, cells were rinsed three times with cold PBS prior to being counted on an automated gamma counter (1282 Compugamma CS; Pharmacia/LKBNuclear, Inc.) along with external standards. Obtained counts were converted into percentage incubated dose per million cells based on normalization to external standards. Experiments were performed in triplicate and repeated three times.

[3] = test system: COLO-320 xenografts; test: In vivo PET-CT quantitative image analysis, COLO-320 xenografts; details: COLO-320 tumors, NSG mice, 9MBq
Procedure: as §1
(§5) Mice (n=4) were injected with 9MBq (250μCi) of each tracer in 150μL of saline intravenously and anesthetized with 3% isoflurane prior to being placed on the scanner bed. Mice were kept warm with an external light source and maintained at 1% isoflurane levels while being scanned. PET imaging (2 beds; 10 min per bed) was carried out using an ARGUS small-animal PET/CT scanner (Sedecal). A CT scan (512 projections) was obtained at the end of each PET scan for anatomical co-registration. For in vivo blocking experiments, mice were injected with 10meq of LAT1 inhibitor. PET data were reconstructed using the 2-dimensional ordered subsets-expectation maximization algorithm (2D-OSEM) and corrected for dead time and radioactive decay. Data visualization and image generation were carried out using Amira 2019.1 (ThermoFisher Scientific).
(§6) Quantitative in vivo image analysis was carried out in AMIDE (SourceForge) 1.0.4 utilizing ellipsoid region-of-interest volume integrations with 3 slices entailing a depth of 1.9 mm per slice. The %ID per cc values were calculated based on a calibration factor obtained from a phantom (known radioactive quantity in a known volume).

[4] = test system: NET xenografts (STC-1, PC12, COLO-320); test: Ex vivo biodistribution, across all NET mouse models; type: in vivo, mice; details: for brain accumulation, average in all NET mice: average over STC-1, COLO-320 and PC12 mice; for retention in small intestines, fold lower than L-[^18F]FDOPA: all NET models
Procedure: as §1, §2

[5] = test system: STC-1 xenografts; test: In vivo PET-CT quantitative image analysis, STC-1 xenografts; details: STC-1 tumors, NSG mice, 9MBq
Procedure: as §1, §5, §6

[6] = test system: TGP61 cells; test: In vitro uptake (binding) assay in TGP61 cells; type: cell-based; details: 30mins incubation, 1 million cells, % incubated dose/million cells
Procedure: as §3, §4

[7] = test system: STC-1 cells; test: In vitro uptake (binding) assay in STC-1 cells; type: cell-based; details: 30mins incubation, 1 million cells, % incubated dose/million cells
Procedure: as §3, §4

[8] = test system: PC12 xenografts; test: In vivo PET-CT quantitative image analysis, PC12 xenografts; details: PC12 tumors, NSG mice, 9MBq
Procedure: as §1, §5, §6

[9] = test system: LAT1; test: In vivo PET-CT blocking by BCH in NET mouse models; design: species or system mice; details: all NET mouse models (PC12, STC-1, COLO-320), 10meq LAT1 inhibitor
Procedure: as §5, §6

[10] = test system: STC-1 xenografts; test: Ex vivo biodistribution in NSG mice bearing STC-1 xenografts; details: for Biodistribution, Bladder / Biodistribution, Blood / Biodistribution, Bone / Biodistribution, Brain / Biodistribution, Fat / Biodistribution, Heart / Biodistribution, Kidneys / Biodistribution, Liver / Biodistribution, Lungs / Biodistribution, Muscle / Biodistribution, Pancreas / Biodistribution, Small Intestines / Biodistribution, Spleen / Biodistribution, Stomach / Biodistribution, Tumor: STC-1 xenograft NSG mice, 1.5MBq i.v.
Procedure: as §1, §2

N[C@H](Cc1cc(O)c(O)cc1[18F])C(=O)O [D-[^18F]FDOPA, 3,4-dihydroxy-6-[^18F]fluoro-D-phenylalanine]
pancreatic retention, fold lower compared to L-[^18F]FDOPA ([1]; COLO-320 mice, 120min p.i.): 12 fold | Biodistribution, Bladder ([1]; 30min p.i.): 3.81 %ID/g | Biodistribution, Blood ([1]; 30min p.i.): 2.58 %ID/g | Biodistribution, Bone ([1]; 30min p.i.): 3.28 %ID/g | Biodistribution, Brain ([1]; 30min p.i.): 0.19 %ID/g | Biodistribution, Fat ([1]; 30min p.i.): 0.31 %ID/g | Biodistribution, Heart ([1]; 30min p.i.): 1.57 %ID/g | Biodistribution, Kidneys ([1]; 30min p.i.): 7.05 %ID/g | Biodistribution, Liver ([1]; 30min p.i.): 2.65 %ID/g | Biodistribution, Lungs ([1]; 30min p.i.): 3.60 %ID/g | Biodistribution, Muscle ([1]; 30min p.i.): 0.89 %ID/g | Biodistribution, Pancreas ([1]; 30min p.i.): 34.93 %ID/g | Biodistribution, Small Intestines ([1]; 30min p.i.): 3.89 %ID/g | Biodistribution, Spleen ([1]; 30min p.i.): 4.77 %ID/g | Biodistribution, Stomach ([1]; 30min p.i.): 2.48 %ID/g | Biodistribution, Tumor ([1]; 30min p.i.): 3.61 %ID/g | Biodistribution, Bladder ([1]; 120min p.i.): 3.68 %ID/g | Biodistribution, Blood ([1]; 120min p.i.): 0.51 %ID/g | Biodistribution, Bone ([1]; 120min p.i.): 4.10 %ID/g | Biodistribution, Brain ([1]; 120min p.i.): 0.19 %ID/g | Biodistribution, Fat ([1]; 120min p.i.): 0.29 %ID/g | Biodistribution, Heart ([1]; 120min p.i.): 0.80 %ID/g | Biodistribution, Kidneys ([1]; 120min p.i.): 1.44 %ID/g | Biodistribution, Liver ([1]; 120min p.i.): 0.54 %ID/g | Biodistribution, Lungs ([1]; 120min p.i.): 1.52 %ID/g | Biodistribution, Muscle ([1]; 120min p.i.): 1.12 %ID/g | Biodistribution, Pancreas ([1]; 120min p.i.): 3.12 %ID/g | Biodistribution, Small Intestines ([1]; 120min p.i.): 1.46 %ID/g | Biodistribution, Spleen ([1]; 120min p.i.): 1.67 %ID/g | Biodistribution, Stomach ([1]; 120min p.i.): 0.99 %ID/g | Biodistribution, Tumor ([1]; 120min p.i.): 3.72 %ID/g | in vitro uptake [2]: 2.97±0.24 % (incubated dose/million cells) | tumor uptake, quantitative PET image analysis ([3]; 30min post i.v. injection): 7.20±0.35 %ID/cc | tumor uptake, quantitative PET image analysis ([3]; 120min post i.v. injection): 6.93±0.80 %ID/cc | brain accumulation, average in all NET mice ([4]; 30min p.i.): 0.31±0.05 %ID/g | brain accumulation, average in all NET mice ([4]; 120min p.i.): 0.34±0.08 %ID/g | hepatic retention, fold lower than L-[^18F]FDOPA ([4]; NET models): up to 4 fold | renal retention, fold lower than L-[^18F]FDOPA ([4]; NET models): up to 4 fold | retention in small intestines, fold lower than L-[^18F]FDOPA ([4]; 30min): up to 4 fold | retention in small intestines, fold lower than L-[^18F]FDOPA ([4]; 120min p.i.): up to 7 fold | tumor uptake, quantitative PET image analysis ([5]; 30min post i.v. injection): 12.01±1.61 %ID/cc | tumor uptake, quantitative PET image analysis ([5]; 120min post i.v. injection): 3.34±0.32 %ID/cc | in vitro uptake [6]: 3.11±0.41% | in vitro uptake [7]: 2.41±0.17% | tumor uptake, quantitative PET image analysis ([8]; 30min post i.v. injection): 8.87±0.31 %ID/cc | tumor uptake, quantitative PET image analysis ([8]; 120min post i.v. injection): 3.96±0.34 %ID/cc | tumor uptake after in vivo blocking by BCH [9]: significantly reduced | pancreatic retention, fold lower compared to L-[^18F]FDOPA ([10]; STC-1 mice, 120min p.i.): approximately 2 fold | Biodistribution, Bladder ([10]; 30min p.i.): 20.49 %ID/g | Biodistribution, Blood ([10]; 30min p.i.): 4.31 %ID/g | Biodistribution, Bone ([10]; 30min p.i.): 3.94 %ID/g | Biodistribution, Brain ([10]; 30min p.i.): 0.55 %ID/g | Biodistribution, Fat ([10]; 30min p.i.): 2.27 %ID/g | Biodistribution, Heart ([10]; 30min p.i.): 2.52 %ID/g | Biodistribution, Kidneys ([10]; 30min p.i.): 12.32 %ID/g | Biodistribution, Liver ([10]; 30min p.i.): 3.85 %ID/g | Biodistribution, Lungs ([10]; 30min p.i.): 6.63 %ID/g | Biodistribution, Muscle ([10]; 30min p.i.): 1.62 %ID/g | Biodistribution, Pancreas ([10]; 30min p.i.): 61.64 %ID/g | Biodistribution, Small Intestines ([10]; 30min p.i.): 10.28 %ID/g | Biodistribution, Spleen ([10]; 30min p.i.): 17.41 %ID/g | Biodistribution, Stomach ([10]; 30min p.i.): 9.37 %ID/g | Biodistribution, Tumor ([10]; 30min p.i.): 6.92 %ID/g | Biodistribution, Bladder ([10]; 120min p.i.): 7.51 %ID/g | Biodistribution, Blood ([10]; 120min p.i.): 1.49 %ID/g | Biodistribution, Bone ([10]; 120min p.i.): 5.28 %ID/g | Biodistribution, Brain ([10]; 120min p.i.): 1.30 %ID/g | Biodistribution, Fat ([10]; 120min p.i.): 1.14 %ID/g | Biodistribution, Heart ([10]; 120min p.i.): 1.58 %ID/g | Biodistribution, Kidneys ([10]; 120min p.i.): 2.30 %ID/g | Biodistribution, Liver ([10]; 120min p.i.): 1.60 %ID/g | Biodistribution, Lungs ([10]; 120min p.i.): 2.34 %ID/g | Biodistribution, Muscle ([10]; 120min p.i.): 2.66 %ID/g | Biodistribution, Pancreas ([10]; 120min p.i.): 9.75 %ID/g | Biodistribution, Small Intestines ([10]; 120min p.i.): 3.80 %ID/g | Biodistribution, Spleen ([10]; 120min p.i.): 0.61 %ID/g | Biodistribution, Stomach ([10]; 120min p.i.): 4.84 %ID/g | Biodistribution, Tumor ([10]; 120min p.i.): 3.15 %ID/g

From paper PMC6791383, “A side-by-side evaluation of [^18F]FDOPA enantiomers for non-invasive detection of neuroendocrine tumors by positron emission tomography” (Oncotarget, 2019)
